Key:
Format in all cases: cell-based, human
[1] = test system: DDIT3 promoter (−1507C); experiment: Luciferase reporter activity in SK-N-MC cells stably transfected with pXP2 DDIT3(−1507C)-Luciferase (C1 cell line); conditions: −1507C construct, stable SK-N-MC cells, 15 hours of treatment; ± standard error of the mean
Procedure: (§1) The cell lysate was assayed for the β-galactosidase activity, as an indicator of the transfection efficiency, and luciferase activity, as an indicator of the transcriptional activity of the promoters: • Assay of β-galactosidase activity. 50 μl of cell lysate are incubated in an E.L.I.S.A. plate with 50 μl of enzyme substrate (2 mM MgCl2—Merck—, 100 mM β-mercaptoethanol—Sigma—, 120 mM Na2HPO4, 80 mM NaH2PO4—both from Carlo Erba—and 1.33 mg/ml of ONPG (2-Nitrophenyl-β-D-galactopyranoside)—Sigma—). This reaction generates a colored product the concentration of which is measured as absorbance at 415 nm in an E.L.I.S.A. plate reader (Model 680, from BioRad). • Assay of luciferase activity. 40 μl of cell lysate are measured adding 100 μl of reagent of the enzyme (20 mM Tricin, […], 33.3 mM DTT, 270 μM Coenzyme A —all from Sigma—, 2.67 mM MgSO4, 0.1 mM EDTA—both from Merck—, 470 μM Luciferin potassium salt —Promega—and 530 μM ATP—Boehringer Mannheim—); alternatively, the one of the Luciferase Assay System kit—Promega—was used. The luminescence emission is recorded in a Monolight 2010 illuminometer (Analytical Luminescence Laboratory). […]
(§2) The clones resistant to the antibiotic are isolated by aspiration with an automatic pipette and seeded in an M24 for the expansion thereof. The expression of luciferase is analyzed and the lines having greater luciferase activity are maintained. […]

[2] = test system: DDIT3 promoter (−1507G); experiment: Luciferase reporter activity in SK-N-MC cells stably transfected with pXP2 DDIT3(−1507G)-Luciferase (G7 cell line); conditions: −1507G construct, stable SK-N-MC cells, 15 hours of treatment; ± standard error of the mean
Procedure: as §1, §2

[3] = test system: DDIT3 promoter; experiment: Luciferase reporter activity in SK-N-MC cells transiently transfected with pXP2-DDIT3 constructs; conditions: transient transfection, both allelic variants; alteration seen after 6 hours of treatment
Procedure: On the day before the transfection 2×10^5 cells per well are seeded in a 24-well plate (M24, from Falcon). 0.7 μg of DNA per well are transfected mixing the plasmids pXP2-DDIT3 and pSV-β-galactosidase in a 1:1 ratio (0.35 μg of pXP2 and 0.35 μg of β-gal) with Lipofectamine Plus (from Life Technologies), following the manufacturer's indications, in a 1:3 DNA:Lipofectamine ratio and allowing the cells to incubate with the plasmid for 5 hours. Twenty-four hours after the transfection the cells are treated to see the response to the stimulus. […]
as §1, with “50 μl of cell lysate are incubated in an E.L.I.S.A. plate with 50 μl of enzyme substrate (2 mM MgCl2—Merck—, 100 mM β-mercaptoethanol—Sigma—, 120 mM Na2HPO4, 80 mM NaH2PO4—both from Carlo Erba—and 1.33 mg/ml of ONPG (2-Nitrophenyl-β-D-galactopyranoside)—Sigma—).” left out, “used.” for “used. The luminescence emission is recorded in a Monolight 2010 illuminometer (Analytical Luminescence Laboratory).”

Substance: Tunicamycin [ERS]
- Luciferase activity with respect to the non-treated cells (activation of the DDIT3 promoter) [1]: 4.6 ± 0.4 times
- Luciferase activity with respect to the non-treated cells (activation of the DDIT3 promoter) [2]: 3.4 ± 0.3 times
- Transcriptional activity of the DDIT3 promoter after treatment [3]: increases significantly
